One block for each compound: values may come before it. Where a SMILES comes first, the peptide text is derived from it. Bridges are numbered along the chain shown (N, C = ends). [ ]: non-standard residue; d: D form. The star is where a group is joined. X2 = O=C(O)CN1CCN(CC(=O)O)CCN([C@H](CCC(=O)*)C(=O)O)CC1; dPhe(4-NHCONH2) = NC(=O)Nc1ccc(C[C@@H](N)C(=O)O)cc1; Phe(4-Cl) = N[C@@H](Cc1ccc(Cl)cc1)C(=O)O
Columns and labels:
[1] = PET/CT imaging after [^61Cu]CuCl2 injection; format: in vivo
HEK-SST2 xenograft mice = assay: Specificity (blocking) study with excess DOTA-LM3; settings: inferred from low, stable liver accumulation
Method: (§4) Unless otherwise specified, the in vivo studies were performed on athymic nude Foxn1^nu 4-6 weeks-old mice. Animals were injected in the shoulder with HEK-SST2 cells (10^7 cells/200 μL) suspended in PBS. The in vivo experiments were performed when tumors reached a volume between 100-500 mm. At the intervention, all mice were between 7 and 11 weeks old.
(§5) The specificity study was performed parallel to pharmacokinetics studies. For this reason, NODAGA-LM3 was radiolabeled with ^64Cu.
(§6) The specificity of [^64Cu]Cu-NODAGA-LM3 for SSTR2-expressing tissues was evaluated in HEK-SST2 xenograft mice through a blocking study. The mice were administered with 0.15 MBq of [^64Cu]Cu-NODAGA-LM3 co-injected with a 2000-fold excess of DOTA-LM3 as a blocking agent. The mice were sacrificed 4 hours post-injection, and the organs were collected. weighed, and counted in a gamma counter.

[2] = Specificity (blocking) study with excess DOTA-LM3; settings: athymic nude Foxn1^nu, mouse, total radioactivity
Method: as §4, §5, §6

C57BL/6NCrl mice = assay: Extended single-dose toxicity study (GLP, microdose approach); format: in vivo
Method: (§1) The precursor-induced toxicity was evaluated using the non-radiolabeled precursor in line with the IAEA and EMA guidelines. The non-clinical safety study was performed using the microdose approach I described in the ICH guideline M3 (R2). The study was designed as an extended single-dose toxicity study in one rodent species and performed under GLP conditions. NODAGA-LM3 toxicity was evaluated after intravenous administration on day 1 of the study, followed by an observation period of 14 days. 60 (30 males and 30 females) C57BL/6NCrl mice were divided into one dose group and one control group. The test item was administered once by i.v, administration into the tail vein.
(§2) In each of the two groups, 20 male and 20 female main animals were euthanized the day after dosing, whereas 10 male and 10 female recovery animals were kept for an observation period of 14 days after dosing to detect possible delayed occurrence or persistence of, or recovery from toxic effects. Three extra mice per sex were included as replacement animals. The dose group animals were injected with a 5 mg/kg vector in a 5 mL/kg dose volume. The control group underwent injection of the vehicle alone (5 mL/kg). The animals were examined twice daily for toxicity and morbidity/mortality signs. All animals were sacrificed for necropsy. Blood was taken before necropsy for analysis of hematologic and clinical biochemistry parameters. Organs were collected, weighted, and preserved in neutral buffered formaldehyde (4%) for histopathological examination. […] No effects on body weight gain or food consumption were noted. […] Therefore, these differences were considered to be unrelated to the test substance. […] All these changes were transitory and considered non-adverse.

[3] = as above; format: in vivo, mice; settings: both sexes, C57BL/6NCrl, mouse, in vivo, iv, 5 mg/kg; single i.v. dose, 14 days observation, mice; read-out: no adverse effect level (NOAEL)
Method: as §1, §2

SSTR4 = biological target: T1, SSTR4 (Homo sapiens, UniProt P31391); assay: Binding affinity (IC50) to SSTR subtypes, displacement of [Leu,D-Trp,^125I-Tyr]-somatostatin-28; settings: membrane pellet sections of SSTR4-expressing cells
T1 construct: expressed in transfected cells
Method: (§3) The binding affinity of Cu-NODAGA-LM3 was determined by measuring the IC50 by labelling the precursor with natural copper (^natCu). The IC50 value is the concentration in which 50% of the specific binding of a reference radioligand to the tested molecule is inhibited. The universal somatostatin radioligand [Leu,D-Trp,^125I-Tyr]-somatostatin-28 was used as a reference radioligand. The assay was performed on […] cryostat sections of membrane pellets prepared from SSTR1-, SSTR2-, SSTR3-, SSTR4-, and SSTR5-expressing cells incubated with increasing concentrations of ^natCu-NODAGA-LM3. IC50 values for each SSTR subtype were calculated by mathematically extracting the concentration of the tested molecule, causing 50% displacing of the specific bounded [Leu,D-Trp,^125I-Tyr]-somatostatin-28.

SSTR5 = biological target: T2, SSTR5 (Homo sapiens, UniProt P35346); assay: as above; settings: membrane pellet sections of SSTR5-expressing cells
T2 construct: expressed in transfected cells
Method: as §3

SSTR3 = biological target: T3, SSTR3 (Homo sapiens, UniProt P32745); assay: as above; settings: membrane pellet sections of SSTR3-expressing cells
T3 construct: expressed in transfected cells
Method: as §3

SSTR1 = biological target: T4, SSTR1 (Homo sapiens, UniProt P30872); assay: as above; settings: membrane pellet sections of SSTR1-expressing cells
T4 construct: expressed in transfected cells
Method: as §3

SSTR2 = biological target: T5, SSTR2 (Homo sapiens, UniProt P30874); assay: as above; settings: membrane pellet sections of SSTR2-expressing cells
T5 construct: expressed in transfected cells
Method: as §3

T1 sequence (P31391 whole entry): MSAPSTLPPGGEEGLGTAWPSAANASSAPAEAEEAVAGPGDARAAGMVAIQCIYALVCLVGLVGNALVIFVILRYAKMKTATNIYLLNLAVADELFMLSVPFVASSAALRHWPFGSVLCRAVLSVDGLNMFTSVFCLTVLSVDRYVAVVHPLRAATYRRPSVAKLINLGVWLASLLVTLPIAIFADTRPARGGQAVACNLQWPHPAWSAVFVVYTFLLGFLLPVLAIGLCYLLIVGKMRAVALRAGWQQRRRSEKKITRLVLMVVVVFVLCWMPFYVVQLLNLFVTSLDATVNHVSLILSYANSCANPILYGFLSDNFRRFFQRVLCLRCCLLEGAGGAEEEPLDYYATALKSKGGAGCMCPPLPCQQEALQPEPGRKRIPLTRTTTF
T5 sequence (P30874 whole entry): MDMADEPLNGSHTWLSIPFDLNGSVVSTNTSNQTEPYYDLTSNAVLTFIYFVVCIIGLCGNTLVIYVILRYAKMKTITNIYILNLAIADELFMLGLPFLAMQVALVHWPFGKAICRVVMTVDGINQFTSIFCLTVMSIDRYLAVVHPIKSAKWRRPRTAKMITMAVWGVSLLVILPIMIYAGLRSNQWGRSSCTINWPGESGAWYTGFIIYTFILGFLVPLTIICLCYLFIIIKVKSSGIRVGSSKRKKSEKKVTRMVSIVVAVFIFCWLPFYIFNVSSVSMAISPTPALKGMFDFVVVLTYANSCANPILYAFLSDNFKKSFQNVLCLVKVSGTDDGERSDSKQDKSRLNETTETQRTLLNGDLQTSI
T2 sequence (P35346 whole entry): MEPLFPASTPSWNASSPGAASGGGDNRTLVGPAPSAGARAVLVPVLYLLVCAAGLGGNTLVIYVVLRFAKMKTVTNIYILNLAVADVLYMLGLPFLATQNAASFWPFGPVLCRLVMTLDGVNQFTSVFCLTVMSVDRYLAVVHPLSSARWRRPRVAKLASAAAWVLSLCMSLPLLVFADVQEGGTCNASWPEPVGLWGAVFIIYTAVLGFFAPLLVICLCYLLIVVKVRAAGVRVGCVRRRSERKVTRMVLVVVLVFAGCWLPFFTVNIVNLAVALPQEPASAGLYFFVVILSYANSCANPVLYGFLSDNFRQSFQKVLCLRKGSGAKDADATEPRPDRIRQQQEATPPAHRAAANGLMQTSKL
T3 sequence (P32745 whole entry): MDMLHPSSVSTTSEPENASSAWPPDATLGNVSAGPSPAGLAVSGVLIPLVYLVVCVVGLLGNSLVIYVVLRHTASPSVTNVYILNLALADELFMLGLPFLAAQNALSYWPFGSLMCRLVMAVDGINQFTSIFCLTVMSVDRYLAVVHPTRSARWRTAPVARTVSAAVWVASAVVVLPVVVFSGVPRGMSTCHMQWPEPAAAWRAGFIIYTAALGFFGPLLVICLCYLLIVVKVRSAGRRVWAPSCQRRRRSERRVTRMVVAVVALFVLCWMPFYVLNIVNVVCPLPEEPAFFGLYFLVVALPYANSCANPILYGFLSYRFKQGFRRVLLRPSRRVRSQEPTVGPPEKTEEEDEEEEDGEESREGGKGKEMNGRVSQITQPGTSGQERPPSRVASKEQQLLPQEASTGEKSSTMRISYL
T4 sequence (P30872 whole entry): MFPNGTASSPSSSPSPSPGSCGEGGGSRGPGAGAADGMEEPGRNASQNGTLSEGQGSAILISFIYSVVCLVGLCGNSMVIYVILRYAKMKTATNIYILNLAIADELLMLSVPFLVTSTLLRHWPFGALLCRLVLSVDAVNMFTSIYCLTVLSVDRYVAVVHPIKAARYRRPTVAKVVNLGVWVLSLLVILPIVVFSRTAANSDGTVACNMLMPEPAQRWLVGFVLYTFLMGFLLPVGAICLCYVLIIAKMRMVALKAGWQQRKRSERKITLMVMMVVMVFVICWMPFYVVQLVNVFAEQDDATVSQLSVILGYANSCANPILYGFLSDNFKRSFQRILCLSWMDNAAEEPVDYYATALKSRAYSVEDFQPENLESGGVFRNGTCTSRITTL

excretion route of free isotopes [1]: excreted mainly through the liver
Structure (SMILES): [Cl][61Cu][Cl] [[^61Cu]CuCl2]

Structure (SMILES): C[C@@H](O)[C@@H]1NC(=O)[C@H](CCCCN)NC(=O)[C@@H](Cc2ccc(NC(N)=O)cc2)NC(=O)[C@H](Cc2ccc(O)cc2)NC(=O)[C@H](NC(=O)[C@H](Cc2ccc(Cl)cc2)NC(=O)CC[C@H](C(=O)O)N2CCN(CC(=O)O)CCN(CC(=O)O)CC2)CSSC[C@@H](C(=O)N[C@H](Cc2ccc(O)cc2)C(N)=O)NC1=O [[^64Cu]Cu-NODAGA-LM3, metal not drawn] (X2-[Phe(4-Cl)][dC]Y[dPhe(4-NHCONH2)]KTC[dY]-NH2; disulfide 2-7)
in vivo stability (HEK-SST2 xenograft mice): generally stable in vivo, with limited transchelation phenomena
tissue uptake at 4 h ([2]; bone, 0.15 MBq, Uptake Bone, 4 hours post-injection, non-blocking): 0.39 ± 0.07 %ID/g
tissue uptake at 4 h ([2]; bone, with DOTA-LM3, 2000-fold excess, co-injected as blocking agent, Uptake Bone, 4 hours blocking, co-injected 2000-fold excess of DOTA-LM3): 0.01 ± 0.01 %ID/g
tissue uptake at 4 h ([2]; pancreas, 0.15 MBq, Uptake Pancreas, 4 hours post-injection, non-blocking): 0.55 ± 0.1 %ID/g
tissue uptake at 4 h ([2]; pancreas, with DOTA-LM3, 2000-fold excess, co-injected as blocking agent, Uptake Pancreas, 4 hours blocking, co-injected 2000-fold excess of DOTA-LM3): 0.12 ± 0.03 %ID/g
tissue uptake at 4 h ([2]; stomach, 0.15 MBq, Uptake Stomach, 4 hours post-injection, non-blocking): 1.31 ± 0.55 %ID/g
tissue uptake at 4 h ([2]; stomach, with DOTA-LM3, 2000-fold excess, co-injected as blocking agent, Uptake Stomach, 4 hours blocking, co-injected 2000-fold excess of DOTA-LM3): 0.43 ± 0.14 %ID/g
tissue uptake at 4 h ([2]; tumor, 0.15 MBq, Uptake Tumor, 4 hours post-injection, non-blocking): 37.9 ± 3.43 %ID/g
tissue uptake at 4 h ([2]; tumor, with DOTA-LM3, 2000-fold excess, co-injected as blocking agent, Uptake Tumor, 4 hours blocking, co-injected 2000-fold excess of DOTA-LM3): 0.52 ± 0.18 %ID/g

Structure (SMILES): C[C@@H](O)[C@@H]1NC(=O)[C@H](CCCCN)NC(=O)[C@@H](Cc2ccc(NC(N)=O)cc2)NC(=O)[C@H](Cc2ccc(O)cc2)NC(=O)[C@H](NC(=O)[C@H](Cc2ccc(Cl)cc2)NC(=O)CC[C@H](C(=O)O)N2CCN(CC(=O)O)CCN(CC(=O)O)CC2)CSSC[C@@H](C(=O)N[C@H](Cc2ccc(O)cc2)C(N)=O)NC1=O [NODAGA-LM3, 2,2′-(7-((R)-4-(((S)-1-(((4R,7S,10S,13R,16S,19S)-4-(((R)-1-amino-3-(4-hydroxyphenyl)-1-oxopropan-2yl)carbamoyl)-10-(4-aminobutyl)-16-(4-hydroxybenzyl)-7-((R)-1-hydroxyethyl)-6,9,12,15,18-pentaoxo-13-(4-ureidobenzyl)-1,2-dithia-5,8,11,14,17-pentaazacycloicosan-19-yl)amino)-3-(4-chlorophenyl)-1-oxopropan-2-yl)amino)-1-carboxy-4-oxobutyl)-1,4,7-triazonane-1,4-diyl)diacetic acid] (X2-[Phe(4-Cl)][dC]Y[dPhe(4-NHCONH2)]KTC[dY]-NH2; disulfide 2-7)
delayed toxicity (C57BL/6NCrl mice; 5 mg/kg i.v., 14 days observation): no indication of delayed toxicity
adverse systemic or local effects (C57BL/6NCrl mice; 5 mg/kg i.v., mice): did not cause any adverse systemic or local effects
body weight gain or food consumption (C57BL/6NCrl mice; 5 mg/kg i.v., mice): No effects
clinical tolerability (C57BL/6NCrl mice; 5 mg/kg i.v., mice): clinically well-tolerated
mortality (C57BL/6NCrl mice; 5 mg/kg i.v., mice): no treatment-related mortality
macroscopic or microscopic findings (C57BL/6NCrl mice; 5 mg/kg i.v., necropsy and histopathology): No macroscopic or microscopic findings that could be attributed to treatment
hematology, white cell count (C57BL/6NCrl mice; 5 mg/kg i.v., transitory, considered non-adverse): increased white cell count in male mice
safety ratio vs intended maximum patient dose 0.8 μg/kg (C57BL/6NCrl mice; considering the dose conversion factor): higher than 1,000 times
NOAEL at 14 days [3]: 5 mg/kg

Structure (SMILES): C[C@@H](O)[C@@H]1NC(=O)[C@H](CCCCN)NC(=O)[C@@H](Cc2ccc(NC(N)=O)cc2)NC(=O)[C@H](Cc2ccc(O)cc2)NC(=O)[C@H](NC(=O)[C@H](Cc2ccc(Cl)cc2)NC(=O)CC[C@H](C(=O)O)N2CCN(CC(=O)O)CCN(CC(=O)O)CC2)CSSC[C@@H](C(=O)N[C@H](Cc2ccc(O)cc2)C(N)=O)NC1=O [^natCu-NODAGA-LM3, metal not drawn] (X2-[Phe(4-Cl)][dC]Y[dPhe(4-NHCONH2)]KTC[dY]-NH2; disulfide 2-7)
IC50 (SSTR4): ≥ 1000 nM
IC50 (SSTR5): ≥ 1000 nM
IC50 (SSTR3): ≥ 1000 nM
IC50 (SSTR1): ≥ 1000 nM
IC50 (SSTR2): 6.7 ± 1.5 nM

From US20260151517A1, “SOMATOSTATIN RECEPTOR-TARGETING RADIOPHARMACEUTICALS AND USES THEREOF” (Nuclidium AG, priority 2024, published 2026)
